These results are taken from patent publication US10759795B2, “Aza-A-ring indenoisoquinoline topoisomerase I poisons” (Purdue Research Foundation, priority 2016, dated 2020).

Values joined by “and” are separate entries in the source; they are usually repeats but may differ in a detail not shown here. Equal entries are not always repeated. Structures can show the parent of a compound that is named as a salt.

One data set deals with T1, Top1 (Homo sapiens, UniProt P11387).
T1 sequence (P11387 1-765): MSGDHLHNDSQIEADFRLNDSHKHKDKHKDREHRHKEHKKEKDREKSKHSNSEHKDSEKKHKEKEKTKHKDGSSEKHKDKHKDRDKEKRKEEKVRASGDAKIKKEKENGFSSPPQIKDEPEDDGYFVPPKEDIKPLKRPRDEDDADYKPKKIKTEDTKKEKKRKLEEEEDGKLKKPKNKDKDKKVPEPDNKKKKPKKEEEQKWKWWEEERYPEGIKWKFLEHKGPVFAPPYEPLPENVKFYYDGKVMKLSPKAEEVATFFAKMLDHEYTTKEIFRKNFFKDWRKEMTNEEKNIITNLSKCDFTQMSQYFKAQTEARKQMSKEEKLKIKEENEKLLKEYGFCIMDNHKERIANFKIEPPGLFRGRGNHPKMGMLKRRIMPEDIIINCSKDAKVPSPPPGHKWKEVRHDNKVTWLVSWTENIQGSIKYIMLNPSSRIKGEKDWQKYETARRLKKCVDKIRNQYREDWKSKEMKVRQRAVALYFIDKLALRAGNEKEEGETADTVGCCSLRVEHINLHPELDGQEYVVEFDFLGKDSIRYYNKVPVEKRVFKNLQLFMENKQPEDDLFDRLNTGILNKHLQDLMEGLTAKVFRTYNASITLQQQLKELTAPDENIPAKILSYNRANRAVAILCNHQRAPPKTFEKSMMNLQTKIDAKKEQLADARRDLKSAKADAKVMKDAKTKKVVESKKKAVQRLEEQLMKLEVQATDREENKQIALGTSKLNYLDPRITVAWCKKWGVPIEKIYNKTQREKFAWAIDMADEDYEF
As to the kind of experiment: Top1-mediated DNA cleavage assay. The data set is classed as biochemical. Particulars: score based on the activity of 1 μM 1 (camptothecin); tested at 0.1, 1, 10, 100 μM. The procedure:
Approximately 2 nM radiolabeled DNA substrate was incubated with recombinant Top in 20 μL of reaction buffer [10 mM Tris-HCl (pH 7.5), 50 mM KCl, 5 mM MgCl2, 0.1 mM EDTA, and 15 μg/mL BSA] at 25° C. for 20 min in the presence of various concentrations of test compounds. […] Aliquots of each reaction mixture were subjected to 20% denaturing PAGE.
The Top1-mediated DNA cleavage assay was used to measure Top1 inhibitory activity. This assay measures the ability of the compound to stabilize DNA cleavage in a 3′-[^32P]-labeled DNA substrate via Top1 poisoning.

Data set [1] has as its system 60 human cancer cell lines. As to the kind of experiment: NCI-60 single-dose cytotoxicity assay. Particulars: mean-graph midpoint of percent growth of 60 human cancer cell lines, 10 μM drug, 48 h, relative to no-drug control and time zero. It is filed as cell-based. As for the experimental part: (§1) The new indenoisoquinolines were evaluated for cancer cell growth inhibitory activities. The National Cancer Institute's NCI-60 cytotoxicity assay measures the ability of test agents to inhibit the growth of approximately 60 different cancer cell lines. In the initial single-dose assay, cells are treated with a 10 μM dose of test agent. The growth of treated cells versus untreated cells is then compared. If a test agent induces a sufficiently low mean growth percent, it is promoted to five-dose testing to determine a mean graph midpoint (MGM) GI50 value. In five-dose testing, cells are treated with test agent concentrations ranging from 10^−8 to 10^−4 M. The concentration required to achieve 50% growth inhibition in a particular cell line is calculated. In situations in which this value is greater than 100 μM or less than 0.01 μM, it is recorded as 100 μM and 0.01 μM, respectively. The values for each of the tested cell lines are averaged to obtain a mean graph midpoint (MGM) GI50 value. MGM GI50 values are often, but not always, determined from two separate rounds (Table 1).

The next data set concerns the target recombinant TDP1 (Homo sapiens, UniProt Q9NUW8). As to the kind of experiment: Recombinant TDP1 assay. It is filed as biochemical. As to conditions: recombinant TDP1, gel-based; read-out: TDP1: IC50 values for the inhibition of TDP1. The procedure: A 5′-[^32P]-labeled single-stranded DNA oligonucleotide containing a 3′-phosphotyrosine (N14Y) was incubated at 1 nM with 10 pM recombinant TDP1 in the absence or presence of inhibitor for 15 min at room temperature in the LMP1 assay buffer containing 50 mM Tris HCl, pH 7.5, 80 mM KCl, 2 mM EDTA, 1 mM DTT, 40 μg/mL BSA, and 0.01% Tween-20^18. […] Gels were dried and exposed to a PhosphorImager screen (GE Healthcare). Gel images were scanned using a Typhoon 8600 (GE Healthcare), and densitometry analyses were performed using ImageQuant software (GE Healthcare).
TDP1 is involved in the repair of DNA damage that results from the action of Top1 poisons, which induce the formation of DNA-protein adducts that include a 3′-phosphotyrosyl linkage. The TDP1 inhibition assay assesses a test agent's ability to inhibit the enzyme-induced cleavage of a 5′-^32P, 3′-phosphotyrosyl-DNA oligonucleotide, called N14Y. Cleavage of the phosphodiester bond between the 3′-phosphate and tyrosine releases […] from the DNA oligonucleotide. The enzyme-processed DNA oligonucleotide lacking its 3′-phosphotyrosyl moiety is designated N14P. A schematic representation of the assay and a representative gel are shown in FIG. 2, and the TDP1 screening results are listed in Table 1.

The target of another data set is T2, recombinant human TDP2 (Homo sapiens, UniProt O95551).
T2 sequence (O95551 1-362): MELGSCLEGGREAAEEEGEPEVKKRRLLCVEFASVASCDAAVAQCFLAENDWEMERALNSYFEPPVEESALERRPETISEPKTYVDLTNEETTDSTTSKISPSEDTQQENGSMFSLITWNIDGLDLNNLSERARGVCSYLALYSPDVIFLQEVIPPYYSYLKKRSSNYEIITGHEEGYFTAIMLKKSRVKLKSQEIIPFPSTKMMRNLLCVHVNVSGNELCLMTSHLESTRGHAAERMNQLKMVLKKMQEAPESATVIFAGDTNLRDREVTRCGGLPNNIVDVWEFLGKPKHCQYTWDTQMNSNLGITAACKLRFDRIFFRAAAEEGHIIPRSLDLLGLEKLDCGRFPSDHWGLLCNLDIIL
As to the kind of experiment: Recombinant TDP2 assay. The data set is classed as biochemical. Particulars: recombinant human TDP2, gel-based; read-out: TDP2: IC50 values for the inhibition of TDP2. From the text: Reactions were terminated and treated similarly to recombinant TDP1 reactions.
TDP2, as opposed to TDP1, cleaves the phosphotyrosyl linkage in 5′-phosphotyrosyl-DNA oligonucleotides.

For data set [2], the system named is approximately 60 different cancer cell lines. As to the kind of experiment: NCI-60 five-dose cytotoxicity assay, mean graph midpoint. It is filed as cell-based. Particulars: Homo sapiens; 5 dose assay, 10^−8-10^−4 M; average over tested cell lines; read-out: MGM: mean graph midpoint of growth inhibition (GI50). As for the experimental part: as §1
The subject of a further data set is Colon, HCT-116. As to the kind of experiment: NCI-60 five-dose cytotoxicity assay, HCT-116. Particulars: Homo sapiens, HCT-116, read-out: Cytotoxicity GI50, Colon, HCT-116. The procedure:
as §1

The next data set deals with Ovarian, OVCAR-3. As to the kind of experiment: NCI-60 five-dose cytotoxicity assay, OVCAR-3. As to conditions: Homo sapiens, OVCAR-3, read-out: Cytotoxicity GI50, Ovarian, OVCAR-3. As for the experimental part: as §1
Another data set concerns Prostate, DU-145. As to the kind of experiment: NCI-60 five-dose cytotoxicity assay, DU-145. As to conditions: Homo sapiens, DU-145, read-out: Cytotoxicity GI50, Prostate, DU-145. The procedure:
as §1

The next data set has as its system Melanoma UACC-62. As to the kind of experiment: NCI-60 five-dose cytotoxicity assay, UACC-62. Particulars: Homo sapiens, UACC-62, read-out: Cytotoxicity GI50, Melanoma UACC-62. As for the experimental part:
as §1

The test system of the next data set is Renal, SN12C. As to the kind of experiment: NCI-60 five-dose cytotoxicity assay, SN12C. As to conditions: Homo sapiens, read-out: Cytotoxicity GI50, Renal, SN12C. As for the experimental part:
as §1

In a further data set the test system is Breast, MCF7. As to the kind of experiment: NCI-60 five-dose cytotoxicity assay, MCF7. As to conditions: Homo sapiens, MCF7, read-out: Cytotoxicity GI50, Breast, MCF7. The procedure:
as §1

For a further data set, the system named is Lung, HOP-62. As to the kind of experiment: NCI-60 five-dose cytotoxicity assay, HOP-62. Particulars: Homo sapiens, HOP-62, read-out: Cytotoxicity GI50, Lung, HOP-62. The procedure:
as §1

Sequence of recombinant TDP1 (Q9NUW8 whole entry, species assumed): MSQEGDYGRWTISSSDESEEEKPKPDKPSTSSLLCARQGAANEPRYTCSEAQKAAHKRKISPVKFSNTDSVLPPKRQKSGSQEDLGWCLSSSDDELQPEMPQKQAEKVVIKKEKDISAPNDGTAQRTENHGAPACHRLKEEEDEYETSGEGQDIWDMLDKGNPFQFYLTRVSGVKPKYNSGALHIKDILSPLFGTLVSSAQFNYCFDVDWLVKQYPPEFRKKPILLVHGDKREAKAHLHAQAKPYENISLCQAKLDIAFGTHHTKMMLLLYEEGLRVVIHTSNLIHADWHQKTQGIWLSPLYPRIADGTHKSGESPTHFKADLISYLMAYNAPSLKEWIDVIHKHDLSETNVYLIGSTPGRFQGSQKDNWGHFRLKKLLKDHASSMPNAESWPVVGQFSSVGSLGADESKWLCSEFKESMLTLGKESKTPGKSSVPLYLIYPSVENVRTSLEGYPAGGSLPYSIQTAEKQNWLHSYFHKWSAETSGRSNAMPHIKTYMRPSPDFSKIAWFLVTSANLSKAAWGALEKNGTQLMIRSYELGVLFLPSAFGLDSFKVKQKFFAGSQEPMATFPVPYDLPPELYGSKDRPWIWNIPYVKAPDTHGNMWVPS

Turning to `O=C1c2ccccc2-c2c1c1cccnc1c(=O)n2CCCn1ccnc1` [Compound 43, 4-Aza-5,6-dihydro-6-(3-(1H-imidazol-1-yl)propyl)-5,11-dioxo-indeno[1,2-c]isoquinoline], the melting point (usually the temperature of the solid-liquid transition) was in the range of 251 to 252 °C. Besides, the “Top 1: compound-induced DNA cleavage due to Top1 poisoning” value (shortened to “Top 1: compound-induced DNA cleavage due”) at Top1 is “+++ (+++, between 75 and 95% activity)”. Further, the “Mean Growth %” value in [1] is listed as 49.6%. Moreover, at recombinant TDP1, the IC50 – broadly, the concentration that gives 50% inhibition – is over 111 µM. For the same compound, the IC50 on recombinant human TDP2 is over 111 µM.
For the compound `CN(C)CCCn1c2c(c3ncccc3c1=O)C(=O)c1ccccc1-2` [Compound 44, 1-Aza-5,6-dihydro-6-(3-(dimethylamino)propyl)-5,11-dioxo-indeno[1,2-c]isoquinoline], the melting point was 187 to 188 °C. For the same compound, the “Top 1: compound-induced DNA cleavage due” value at Top1 is “++ (++, between 50 and 75% activity)”. In [1], the “Mean Growth %” value is listed as 44.4%. Besides, the IC50 at recombinant TDP1 was 90 µM. In addition, the IC50 on recombinant human TDP2 is over 111 µM.
As for `CN(C)CCCn1c2c(c3ccncc3c1=O)C(=O)c1ccccc1-2` [Compound 46, 3-Aza-5,6-dihydro-6-(3-(dimethylamino)propyl)-5,11-dioxo-11H-indeno[1,2-c]isoquinoline], the melting point is 168 to 170 °C. At Top1, the “Top 1: compound-induced DNA cleavage due” value was “++ (++, between 50 and 75% activity)”. Further, in data set [2], the GI50 (commonly the concentration at which growth is held to half of that of the control) was 977 nM. Also, the concentration for 50% growth inhibition (GI50) in the data set with Colon, HCT-116 is 380 nM. For the same compound, in the data set on Ovarian, OVCAR-3, the GI50 was 2000 nM.
Regarding `CN(C)CCCn1c2c(c3cccnc3c1=O)C(=O)c1ccccc1-2` [Compound 47, 4-Aza-5,6-dihydro-6-(3-(dimethylamino)propyl)-5,11-dioxo-indeno[1,2-c]isoquinoline], the melting point lay within 183 to 184 °C. In addition, the GI50 in the data set on Prostate, DU-145 was 1910 nM. Moreover, the GI50 in the data set with Melanoma UACC-62 worked out at 1290 nM. Also, the “Top 1: compound-induced DNA cleavage due” value on Top1 was “+++ (+++, between 75 and 95% activity)”. The compound also yielded an activity at 10 µM in data set [1] of 5.45%. Moreover, in the data set with Renal, SN12C, the GI50 turned out to be 1120 nM. Besides, the IC50 on recombinant TDP1 was about 111 µM. Moreover, in the data set with Breast, MCF7, the 50% growth inhibitory concentration (GI50) was 363 nM. Moreover, the GI50 in data set [2] came to 1260 nM. On recombinant human TDP2, the IC50 was over 111 µM. For the same compound, the GI50 in the data set with Colon, HCT-116 was 437 nM. The GI50 in the data set with Ovarian, OVCAR-3 is 2400 nM.
Consider `O=C1c2ccccc2-c2c1c1ncccc1c(=O)n2C[C@H](O)CO` [Compound 48, (2′S)-1-Aza-5,6-dihydro-6-(2′,3′-dihydroxypropyl)-5,11-dioxo-indeno[1,2-c]isoquinoline], for which the melting point was 245 to 250 °C (dec.). Moreover, the “Top 1: compound-induced DNA cleavage due” value on Top1 is “+ (+, between 20 and 50%activity)”. For the same compound, in data set [1], the “Mean Growth %” value amounted to 100%. Further, the IC50 at recombinant TDP1 was over 111 µM. In addition, the IC50 at recombinant human TDP2 was over 111 µM.
`O=C1c2ccccc2-c2c1c1cnccc1c(=O)n2C[C@H](O)CO` [Compound 49, (2′S)-2-Aza-5,6-dihydro-6-(2′,3′-dihydroxypropyl)-5,11-dioxo-indeno[1,2-c]isoquinoline] showed a melting point of 229 to 232 °C. The “Top 1: compound-induced DNA cleavage due” value at Top1 is “+ (+, between 20 and 50%activity)”. The “Mean Growth %” value in [1] came to 85.5%. The IC50 on recombinant TDP1 is over 111 µM. Also, at recombinant human TDP2, the IC50 was over 111 µM.
Regarding `O=C1c2ccccc2-c2c1c1cccnc1c(=O)n2C[C@H](O)CO` [Compound 51, (2′S)-4-Aza-5,6-dihydro-6-(2′,3′-dihydroxypropyl)-5,11-dioxo-indeno[1,2-c]isoquinoline], the melting point fell in the range of 247 to 255 °C. Further, the “Top 1: compound-induced DNA cleavage due” value at Top1 was “+ (+, between 20 and 50%activity)”. In [1], the “Mean Growth %” value is listed as 61.7%. For the same compound, the IC50 at recombinant TDP1 is over 111 µM. Further, the IC50 at recombinant human TDP2 was over 111 µM.
Take `NCCCn1c2c(c3cccnc3c1=O)C(=O)c1ccccc1-2` [Compound 60, 6-(3-Aminopropyl)-4-aza-5,6-dihydro-5,11-dioxo-indeno[1,2-c]isoquinoline Dihydrochloride]: the 50% growth inhibitory concentration (GI50) amounted to 1910 nM in the data set on Prostate, DU-145; 1350 nM with Melanoma UACC-62; 1450 nM with Lung, HOP-62; 1120 nM in the data set with Renal, SN12C; 417 nM with Breast, MCF7; 1510 nM in data set [2]. The GI50 was 537 nM in the data set on Colon, HCT-116 and 2290 nM in the data set with Ovarian, OVCAR-3. At Top1, the “Top 1: compound-induced DNA cleavage due” value was “++ (++, between 50 and 75% activity)”. This compound gave an activity at 10 µM in [1] of 12.2%. Also, the IC50 at recombinant TDP1 is 60 µM and > 111 µM; on recombinant human TDP2, over 111 µM.
